Target: T1, c-Jun N-terminal kinase 1 (JNK1) (Homo sapiens, UniProt P45983)
T1 construct: gene MAPK8
Assay: LANCE Ultra TR-FRET kinase assay (PerkinElmer), 10-point two-fold dilution
Assay type: biochemical

T1 sequence (P45983 whole entry): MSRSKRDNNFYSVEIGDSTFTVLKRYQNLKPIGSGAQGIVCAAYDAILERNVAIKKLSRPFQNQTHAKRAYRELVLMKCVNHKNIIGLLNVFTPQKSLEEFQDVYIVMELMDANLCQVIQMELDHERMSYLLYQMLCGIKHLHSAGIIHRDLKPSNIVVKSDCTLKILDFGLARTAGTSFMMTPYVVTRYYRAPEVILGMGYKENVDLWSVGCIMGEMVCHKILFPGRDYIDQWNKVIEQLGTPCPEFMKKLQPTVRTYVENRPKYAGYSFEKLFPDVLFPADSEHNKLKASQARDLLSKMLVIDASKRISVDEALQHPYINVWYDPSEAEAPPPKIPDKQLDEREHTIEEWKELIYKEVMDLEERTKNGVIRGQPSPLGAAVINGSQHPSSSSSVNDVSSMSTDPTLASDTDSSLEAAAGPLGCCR

With COc1cc(-c2cc(=O)c3c(O)cc(O)cc3o2)cc(OC)c1O [Tricin] the IC50 was 17.7 µM.

From article PMC9572546, “Discovery of Novel c-Jun N-Terminal Kinase 1 Inhibitors from Natural Products: Integrating Artificial Intelligence with Structure-Based Virtual Screening and Biological Evaluation” (Molecules, 2022)
